Literature values as cited in patent US20070275934A1, “Treatment of pancreatic cancer with active vitamin d compounds in combination with other treatments” (priority 2004, published 2007).

System: patients with refractory malignancies
Settings: weekly HDPA, Beer et al. 2001

SMILES: C=C1/C(=C\C=C2/CCC[C@]3(C)[C@@H]([C@H](C)CCCC(C)(C)O)CC[C@@H]23)C[C@@H](O)C[C@@H]1O [calcitriol, 1α,25-dihydroxyvitamin D3]
- Dose-limiting toxicity: no dose-limiting toxicity
- Mean peak calcitriol levels: within the therapeutic range
